From patent US10851069B2, “Compositions of crystallized hydrophobic compounds and methods of making and using same” (Massachusetts Institute of Technology, priority 2016, dated 2020)

Columns and labels:
[1] = test system: inflammatory macrophage markers Sphk1, TNFα, Arg1, IL1; assay: NanoString multiplexed gene expression analysis of retrieved capsules; assay type: in vivo, C57BL/6 mice; conditions: amorphous drug-loaded capsules, 2 weeks IP; CSF1R-targeting agents compared
Protocol: RNAs for mock-implanted (mock) controls, or for various drug-loaded 0.5 mm diameter alginate sphere-bearing mice (n=4/group) were isolated from tissue samples taken at various time points after implantation, as described. Respective RNAs were quantified, diluted to the appropriate concentration (100 ng/μl), and then 500 ng of each sample was processed according to NanoString manufacturer protocols for expression analysis via our customized multiplexed gene mouse macrophage subtyping panel. RNA levels (absolute copy numbers) were obtained following nCounter (NanoString Technologies Inc., Seattle, Wash.) quantification, and group samples were analyzed using nSolver analysis software (NanoString Technologies Inc., Seattle, Wash.).

[2] = Drug extraction (HPLC) of retrieved capsules, remaining loaded drug; assay type: in vivo, C57BL/6 mice; conditions: crystalline, co-encapsulated with islets, after 460 days compared to 6 months (180 days)
Protocol: Calibration curves were obtained on an Agilent LC 1100 Series (Agilent Technologies, CA, USA) equipped with binary pump ([…] Å), auto-sampler (G1313 Å), degasser and photodiode detector (DAD, […] Å). Chemstation was used for system control, data processing and data acquisition for LC. Chromatographic separation was achieved by an analytical Waters Atlantis T3 C18 column (5 μm, 4.6×250 mm). The temperature of column and auto-sampler were kept at 20° C. Stock solution of GW2580 was prepared in dimethyl sulfoxide (DMSO) at a target concentration of 10 mg/ml and appropriate dilutions were made in DMSO to prepare standards (0.25-2500 μg/ml) for calibration curve of GW2580. 10 μl of standard solution was injected and the analytes were eluted by gradient mode using (A) acetonitrile and (B) 0.1% formic acid in water at a constant flow rate of 1 ml/min. The gradient conditions of mobile phase were as follows: 0 min 10% A, 10 min 95% A, 14 min 95% A, 16 min 10% A, 20 min 10% A. Stock solution of curcumin was prepared in dimethyl sulfoxide (DMSO) at a target concentration of 10 mg/ml and appropriate dilutions were made in DMSO to prepare standards (0.05-500 μg/ml) for calibration curve of curcumin. 10 μl of standard solution was injected and the analytes were eluted by gradient mode using (A) acetonitrile and (B) 0.1% formic acid in water at a constant flow rate of 1 ml/min. […]

[3] = test system: STZ-induced diabetic C57BL/6 mice; assay: Blood glucose monitoring after transplantation of encapsulated rat islets with or without drug; assay type: in vivo
Protocol: Immediately prior to encapsulation, the cultured islets were centrifuged at 1,400 rpm for 1 minute and washed with Ca-free Krebs-Henseleit (KH) Buffer (4.7 mM KCl, 25 mM HEPES, 1.2 mM KH2PO4, 1.2 mM MgSO4×7H2O, 135 mM NaCl, pH≈7.4, ≈290 mOsm). After washing, islets were centrifuged again and all supernatant was aspirated. The islet pellet was then re-suspended in a 2.0% solution of SLG20 alginate dissolved in 0.9% NaCl solution at an islet density of 1,000 islets per 1.0 ml alginate solution. Spheres were crosslinked using a BaCl2 gelling solution and their sizes were controlled using similar procedures as the empty spheres (described above). Immediately after crosslinking, the encapsulated islets were washed 4 times with HEPES buffer and 2 times with RPMI Medium 1640 with 10% HIFBS and cultured overnight at 37° C. for transplantation. As the islets had variable sizes (50-400 μm) and there was an inevitable loss of islets during the encapsulation process, the total number of encapsulated islets were recounted and converted into islet equivalents (IE, normalized to 150 μm size) based on a previously published method (Ricordi, C. et al. Islet isolation assessment in man and large animals. Acta 18 Diabetol. Lat. 27, 185195 (1990)) prior to transplantation.
All animal protocols were approved by the MIT Committee on Animal Care, and all surgical procedures and post-operative care was supervised by MIT Division of Comparative Medicine veterinary staff. Immune-competent male non-diabetic or STZ-induced diabetic C57BL/6 mice (Jackson Laboratory, Bar Harbor, Me.) were anesthetized with 3% isoflurane in oxygen and had their abdomens shaved and sterilized using betadine and isopropanol. Preoperatively, all mice also received a 0.05 mg/kg dose of buprenorphine subcutaneously as a pre-surgical analgesic, along with 0.3 mL of 0.9% saline subcutaneously to prevent dehydration. […]
Blood glucose levels were monitored three times a week following transplantation of islet-containing alginate capsules. […]

With `COc1ccc(COc2ccc(Cc3cnc(N)nc3N)cc2OC)cc1` [GW2580, 5-[[3-Methoxy-4-[(4-methoxyphenyl)methoxy]phenyl]methyl]-2,4-pyrimidinediamine] the gene expression responses [1] was “almost identical gene expression responses”, the “drug remaining in retrieved capsules” value [2] was “significantly larger amount” and the “improvement of normoglycemia duration over controls” value ([3]; amorphous) was 2 fold. The “improvement of normoglycemia duration over controls” value ([3]; crystalline) was “approximately 13 fold” and the “duration of maintained normoglycemia” value ([3]; crystalline, 0.5 mm alginate microspheres) was “over 1.25 years”.
